pIC50: −log10 of the molar value. The source made the active and inactive calls. The rule behind the calls is not given here.

This assay deals with Jurkat NF-kB reporter, TCR-induced, luciferase luminescence. Description: inhibitors of TCR-driven NF-kB activation, dose response, Jurkat cells, luminescence (AID 489035).
Take `O=C(c1ccc(Cl)cc1)c1cc([N+](=O)[O-])ccc1N1CCOCC1`: the IC50 (commonly the midpoint of a concentration-inhibition curve) is > 80 µM (inactive). In the case of `CC1=NNC(=O)/C1=C\c1cn(-c2ccccc2)nc1-c1ccc(Cl)cc1`, the pIC50 – broadly, −log10 of the IC50, conventionally taken in molar units – is 5.95. Take `O=C1C=CCC(/C=C/c2ccccc2)O1` (stereo not given): the negative-log IC50 (pIC50) is 6.77. On to `COc1ccc(/C=N\NC(=O)c2ccccc2F)cc1COc1ccc(F)cc1F`, for which the IC50 was > 80 µM (inactive). On the same count and under the same terms, to `COc1cc(CC(=O)OCC(=O)c2ccc3c(c2)OCCO3)cc(OC)c1OC` belongs > 80 µM (inactive). For `CCOC(=O)c1ccc2nc(Nc3nc4ccc(F)cc4s3)sc2c1`, the IC50 was 75.4 µM (inactive).

Consider `Cc1cc(-c2ccc(C)c(S(=O)(=O)N3CCN(c4ccc([N+](=O)[O-])cc4)CC3)c2)on1`, for which the IC50 is > 80 µM (inactive). With `COc1cc(Cn2c(-c3nonc3N)nc3ccccc32)ccc1C`, the IC50 is > 80 µM (inactive). In the case of `COc1cccc2sc(Nc3nnc(-c4ccccc4Cl)o3)nc12`, the IC50 is > 80 µM (inactive). For the compound `O=C(NCCOc1ccccc1)c1cc([N+](=O)[O-])ccc1N1CCOCC1`, the IC50 is > 80 µM (inactive). For the compound `CCc1ccc(S(=O)(=O)/N=C2\C=C(Nc3ccc(O)cc3)C(=O)c3ccccc32)cc1`, the pIC50 is 5.59. The same measure, in the same setting: the same measure for `CCOC(=O)C1CCN(S(=O)(=O)c2c(Cl)ccc3nonc23)CC1`: 5.73.

`COc1cccc(CN(C)C(=O)c2ccc(OCC(=O)Nc3cccc(C(F)(F)F)c3)c(OC)c2)c1`: the IC50 was 40.5 µM (inactive). As for `COc1ccc(S(=O)(=O)/N=C2\C=C(Nc3ccc(O)cc3)C(=O)c3ccccc32)cc1`, the pIC50 is 6.28. In the case of `CCSc1nc2ccccc2n1C(=O)/C=C\c1ccc(OC)c(OC)c1`, the pIC50 is 5.64. Same read-out and setting: the same measure for `COc1ccc(C(NC(=O)C(C)C)c2ccc3cccnc3c2O)cc1` (stereo not given): 5.22; for `CCOc1ccc2c(c1)sc(N)[n+]2Cc1cc(C)cc2cccnc12`: 5.11.

`COC(=O)c1cn(NC(=O)c2cc([N+](=O)[O-])ccc2F)c(=O)c2ccccc12`: the negative logarithm of the IC50 (pIC50) is 6.34. With `CCOC(=O)c1[nH]c2c(c1C)C(=O)CC(c1ccco1)C2` (stereo not given), the IC50 is > 80 µM (inactive). In the case of `CCCC(=O)NC(c1ccc(C)cc1)c1ccc2cccnc2c1O` (stereo not given), the negative-log IC50 (pIC50) was 5.06. `CCn1ncc(C2=NOC(C(=O)NCc3ccc(Cl)cc3)C2)c1C` (stereo not given): the IC50 is > 80 µM (inactive). Turning to `Cc1nc(Nc2nc3c(c(=O)[nH]2)CCC3)nc2ccccc12`, the pIC50 was 5.44. For `COC(=O)c1ccccc1NC(=O)Cn1c(-c2nonc2N)nc2ccccc21`, the IC50 was 43.6 µM (inactive). On the same count and under the same terms, to `Cc1ccc(C(=O)Nc2ncc(Cc3ccc(SC(F)F)cc3)s2)cc1` belongs > 80 µM (inactive). Regarding `O=C(N=Nc1c(O)[nH]c2ccc(Br)cc12)c1ccccc1-n1cccc1`, the IC50 was 50.2 µM (inactive). In the case of `C=C(C)[C@@]12OC3(c4ccccc4)O[C@@H]1C1[C@@H]4O[C@]4(CO)[C@@H](O)[C@]4(O)C(=O)C(C)=C[C@H]4[C@@]1(O3)[C@H](C)[C@H]2OC(=O)/C=C/C=C/c1ccccc1` (stereo not given in full), the IC50 was 27.9 µM (inactive).

For the compound `CC(C)(C)c1ccc(C(=O)O/N=C(\N)c2ccccn2)cc1`, the pIC50 is 5.02. Turning to `Cc1ccc(S(=O)(=O)Nc2cccc(-c3ccc4nncn4n3)c2)cc1`, the IC50 was > 80 µM (inactive). For the compound `COC(=O)c1cnc(Oc2ccc(NC(=O)NC(=O)c3c(F)cccc3Cl)cc2)cc1C(F)(F)F`, the IC50 is > 80 µM (inactive). On to `COc1ccc(-n2nnnc2-c2ccccc2)cc1`, for which the IC50 was > 80 µM (inactive).

Take `CCOC(=O)c1ccc(NC(=O)Cn2cnc3cc(C)c(C)cc32)cc1`: the IC50 was > 80 µM (inactive). With `CCCCS(=O)(=O)/C=C\C=C/S(=O)(=O)CCCC`, the pIC50 is 6.14. For `CCCCCn1c2c(c(=N)c3ccccc31)CCC2`, the IC50 is > 80 µM (inactive). On to `CCCCCN1C=CC(=C2C(=O)c3ccccc3C2=O)C=C1`, for which the negative logarithm of the IC50 (pIC50) is 6.43.

As for `COc1ccc(NS(=O)(=O)c2cc(-c3cnc(C4CC4)o3)ccc2C)cc1`, the IC50 is 27 µM (inactive). Consider `CCOC(=O)N=Nc1c2ccccc2c2nc3no[nH]c3nc12`, for which the negative logarithm of the IC50 (pIC50) was 6.14. `CC(=O)O[C@@]12CO[C@@H]1C[C@H](O)[C@@]1(C)C(=O)[C@H](O)C3=C(C)[C@@H](OC(=O)[C@H](O)[C@@H](NC(=O)c4ccccc4)c4ccccc4)C[C@@](O)([C@@H](OC(=O)c4ccccc4)C12)C3(C)C` (stereo not given in full): the IC50 was 39.4 µM (inactive). For the compound `CCCCCCCn1c2c(c(=N)c3ccccc31)CCC2`, the pIC50 is 4.91. For the compound `O=C(Nc1ccc(N2CCOCC2)cc1)c1ccc(Cl)c(S(=O)(=O)N2CCCCC2)c1`, the IC50 was > 80 µM (inactive). For `Cc1cc(C)c2nc(C)cc(N/N=C/c3ccc(O)cc3)c2c1`, the pIC50 is 5.54. For the compound `COc1cccc(/C=N/Nc2ncnc3scc(-c4ccccc4)c23)c1O`, the pIC50 is 5.90. For the compound `COc1ccc(CS(=O)(=O)/C(Cl)=C(/Cl)C(=O)Nc2ccc(OC)nc2)cc1`, the pIC50 was 6.35. The same measure, in the same setting: the same measure for `C=CCSc1nc2ccccc2n1C(=O)/C=C/c1cc(OC)c(OC)c(OC)c1`: 5.75. Consider `CCOC(=O)c1[nH]c(C)c(C(=O)Nc2ccc(C)cc2C)c1C`, for which the IC50 is > 80 µM (inactive). As to `c1cc2c(cc1C1=NNC(=NC3CC3)SC1)OCCO2`, the pIC50 is 6.59.

With `CCOc1ccccc1C(=O)Nc1ccc2nc(N3CCN(c4ncccn4)CC3)cc(C)c2c1`, the negative-log IC50 (pIC50) was 5.37.

Regarding `COc1ccc(C)c(Cn2c(-c3nonc3N)nc3ccccc32)c1`, the IC50 was > 80 µM (inactive). Consider `CCOC(=O)C(C)Oc1cccc2c(=O)n(CC(=O)NCc3ccc(F)cc3)ccc12` (stereo not given), for which the IC50 was > 80 µM (inactive). On to `COc1ccc(N/N=C/c2c(C(=O)O)ccc3ccccc23)cc1`, for which the negative logarithm of the IC50 (pIC50) was 4.79. Take `COc1ccccc1N1CCN(C(=O)C2c3ccccc3Oc3ccccc32)CC1`: the IC50 was 57.2 µM (inactive). In the case of `CCCCCC(=O)N[C@@H](c1ccccc1)[C@@H](O)C(=O)O[C@H]1C[C@@]2(O)[C@@H](OC(=O)c3ccccc3)C3[C@](C)(C(=O)[C@H](OC(C)=O)C(=C1C)C2(C)C)[C@@H](O)C[C@H]1OC[C@@]31OC(C)=O` (stereo not given in full), the IC50 is 32.3 µM (inactive).

On to `CCOc1ccc(N(CC(=O)Nc2ccccc2C)S(=O)(=O)c2c(C)noc2C)cc1`, for which the IC50 is > 80 µM (inactive). For the compound `Cc1ccc(NS(=O)(=O)c2ccc(C(=O)NC3CCN(Cc4ccccc4)CC3)cc2)cc1`, the pIC50 was 4.70. For the compound `CCN(CC)c1ccc(/C=N/NC(=O)c2cccc(S(=O)(=O)Nc3ccccc3OC)c2)c(O)c1`, the negative logarithm of the IC50 (pIC50) was 5.47. As for `CCO[C@H]1OC(C(=O)NCc2nc3ccccc3[nH]2)=C[C@@H](C2CC2)[C@@H]1CCCO`, the IC50 was > 80 µM (inactive). On to `Cn1nc(-c2ccccn2)nc2c(=O)n(C)c(=O)nc1-2`, for which the pIC50 is 4.91. On the same count and under the same terms, the same measure for `O[C@@H]1[C@@H](O)C=C2CCN3Cc4cc5c(cc4[C@H]1C23)OCO5` (stereo not given in full): 6.08. For `O=C(Nc1ccc(S(=O)(=O)Nc2ccc(F)cc2)cc1)c1ccc(CN2CCOCC2)cc1`, the IC50 was 40.8 µM (inactive).

Consider `Cc1cc(C(C)(C)C)cc(C)c1C[n+]1ccc2ccccc2c1`, for which the IC50 is 58.9 µM (inactive).

With `CC(Oc1ccc(Cl)cc1Cl)c1nc(-c2ccc(NC(=O)c3ccncc3)cc2)no1` (stereo not given), the IC50 was > 80 µM (inactive).

These data come from PubChem BioAssay AID489035 (Sanford-Burnham Center for Chemical Genomics, 2010).
